Laboratory results published in PubChem BioAssay AID248 (DTP/NCI, 2004).
“And” between values parts separate entries of the source, which are not always exact repeats. Equal entries are not always repeated. Inconclusive results and toxic doses are left out. Cut-off read from the data, not from the text of the source: active = T/C of 150% or more; inactive = T/C below 125%.

Tested on: L1210 leukemia ip in BDF1 mice, survival T/C
Test: NCI In Vivo Anticancer Drug Screen. Data for tumor model L1210 Leukemia (intraperitoneal) in B6D2F1 (BDF1) mice
Conditions: endpoint: mean survival time, higher = longer survival
Method in brief: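 Antitumor effect is assessed in tumor-bearing animals. Survival in the compound arm is compared with a vehicle-dosed control arm and expressed as their quotient.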

[1] = dose: 100.0 mg/kg/injection, schedule: Q01DX009 (ip), vehicle: Klucel (hydroxypropylcellulose) (HPC)
[2] = dose: 200.0 mg/kg/injection, schedule: Q01DX009 (ip), vehicle: Klucel (hydroxypropylcellulose) (HPC)
[3] = dose: 400.0 mg/kg/injection, schedule: Q01DX009 (ip), vehicle: Klucel (hydroxypropylcellulose) (HPC)
[4] = dose: 100.0 mg/kg/injection, schedule: Q01DX009 (ip), vehicle: saline with Tween-80
[5] = dose: 200.0 mg/kg/injection, schedule: Q01DX009 (ip), vehicle: saline with Tween-80
[6] = dose: 400.0 mg/kg/injection, schedule: Q01DX009 (ip), vehicle: saline with Tween-80
[7] = dose: 100.0 mg/kg/injection, schedule: Q01DX001 (ip), vehicle: Klucel (hydroxypropylcellulose) (HPC)
[8] = dose: 100.0 mg/kg/injection, schedule: Q04DX003 (ip), vehicle: Klucel (hydroxypropylcellulose) (HPC)
[9] = dose: 200.0 mg/kg/injection, schedule: Q01DX001 (ip), vehicle: Klucel (hydroxypropylcellulose) (HPC)
[10] = dose: 200.0 mg/kg/injection, schedule: Q04DX003 (ip), vehicle: Klucel (hydroxypropylcellulose) (HPC)
[11] = dose: 400.0 mg/kg/injection, schedule: Q01DX001 (ip), vehicle: Klucel (hydroxypropylcellulose) (HPC)
[12] = dose: 400.0 mg/kg/injection, schedule: Q04DX003 (ip), vehicle: Klucel (hydroxypropylcellulose) (HPC)
[13] = dose: 100.0 mg/kg/injection, schedule: Q01DX009 (ip), vehicle: saline
[14] = dose: 200.0 mg/kg/injection, schedule: Q01DX009 (ip), vehicle: saline
[15] = dose: 100.0 mg/kg/injection, schedule: Q04DX003 (ip), vehicle: saline
[16] = dose: 200.0 mg/kg/injection, schedule: Q04DX003 (ip), vehicle: saline
[17] = dose: 400.0 mg/kg/injection, schedule: Q04DX003 (ip), vehicle: saline
[18] = dose: 100.0 mg/kg/injection, schedule: Q04DX002 (ip), vehicle: saline with Tween-80
[19] = dose: 200.0 mg/kg/injection, schedule: Q04DX002 (ip), vehicle: saline with Tween-80
[20] = dose: 400.0 mg/kg/injection, schedule: Q04DX002 (ip), vehicle: saline with Tween-80
[21] = dose: 50.0 mg/kg/injection, schedule: Q04DX002 (ip), vehicle: saline with Tween-80
[22] = dose: 100.0 mg/kg/injection, schedule: Q01DX001 (ip), vehicle: saline
[23] = dose: 200.0 mg/kg/injection, schedule: Q01DX001 (ip), vehicle: saline
[24] = dose: 400.0 mg/kg/injection, schedule: Q01DX001 (ip), vehicle: saline

Measured: T/C

CCOC(=O)NS(=O)(=O)Nc1ccccc1
inactive: dose: 100.0 mg/kg/injection, schedule: Q01DX001 (ip), vehicle: carboxymethylcellulose (CMC) 100 % of control | dose: 200.0 mg/kg/injection, schedule: Q01DX001 (ip), vehicle: carboxymethylcellulose (CMC) 109 % of control | dose: 400.0 mg/kg/injection, schedule: Q01DX001 (ip), vehicle: carboxymethylcellulose (CMC) 95 % of control

Cc1cccc(Nc2n[nH]c(=S)s2)c1
inactive: [1] 93 % of control | [2] 98 % of control | [3] 87 % of control

CCCCCCCN(CCCCCCC)C(=O)N(C)C
inactive: dose: 100.0 mg/kg/injection, schedule: Q04DX002 (sc), vehicle: olive oil, sesame oil, peanut oil 104 % of control | dose: 200.0 mg/kg/injection, schedule: Q04DX002 (sc), vehicle: olive oil, sesame oil, peanut oil 107 % of control | dose: 400.0 mg/kg/injection, schedule: Q04DX002 (sc), vehicle: olive oil, sesame oil, peanut oil 114 % of control

O=C(O)CCCCc1ccccc1
inactive: [4] 96 % of control | dose: 100.0 mg/kg/injection, schedule: Q04DX003 (ip), vehicle: saline with Tween-80 100 % of control | [5] 100 % of control | dose: 200.0 mg/kg/injection, schedule: Q04DX003 (ip), vehicle: saline with Tween-80 91 % of control | [6] 92 % of control | dose: 400.0 mg/kg/injection, schedule: Q04DX003 (ip), vehicle: saline with Tween-80 94 % of control

Nc1ccc2c(c1)-c1ccccc1C1=NCCN12
inactive: dose: 2.5 mg/kg/injection, schedule: Q04DX003 (ip), vehicle: Klucel (hydroxypropylcellulose) (HPC) 102 % of control | dose: 5.0 mg/kg/injection, schedule: Q01DX009 (ip), vehicle: Klucel (hydroxypropylcellulose) (HPC) 98 % of control | dose: 5.0 mg/kg/injection, schedule: Q04DX003 (ip), vehicle: Klucel (hydroxypropylcellulose) (HPC) 102 % of control | dose: 10.0 mg/kg/injection, schedule: Q01DX009 (ip), vehicle: Klucel (hydroxypropylcellulose) (HPC) 98 % of control | dose: 10.0 mg/kg/injection, schedule: Q04DX003 (ip), vehicle: Klucel (hydroxypropylcellulose) (HPC) 93 % of control | dose: 20.0 mg/kg/injection, schedule: Q01DX009 (ip), vehicle: Klucel (hydroxypropylcellulose) (HPC) 96 % of control | dose: 20.0 mg/kg/injection, schedule: Q04DX003 (ip), vehicle: Klucel (hydroxypropylcellulose) (HPC) 90 % of control

Cc1ccc(S(=O)(=O)Nc2ccccc2OS(=O)(=O)c2ccc(C)cc2)cc1
inactive: [7] 95 % of control | [1] 106 % of control | [8] 101 % of control | [9] 89 % of control | [2] 108 % of control | [10] 100 % of control | [11] 93 % of control | [3] 106 % of control | [12] 97 % of control

C/C=C/C(=O)OCCN(CC)CC
inactive: dose: 50.0 mg/kg/injection, schedule: Q01DX009 (ip), vehicle: saline 103 % of control | [13] 103 % of control | [14] 100 % of control

CC(=O)Nc1cc2ccc3ccccc3c2c2ccccc12
inactive: dose: 75.0 mg/kg/injection, schedule: Q04DX002 (ip), vehicle: Klucel (hydroxypropylcellulose) (HPC) 102 % of control | dose: 150.0 mg/kg/injection, schedule: Q04DX002 (ip), vehicle: Klucel (hydroxypropylcellulose) (HPC) 97 % of control | dose: 300.0 mg/kg/injection, schedule: Q04DX002 (ip), vehicle: Klucel (hydroxypropylcellulose) (HPC) 97 % of control

Cc1nc2ccccc2c(C)c1-c1c(C)nc2ccccc2c1C
inactive: [7] 98 % of control | [13] 97 % of control | [15] 100 % of control | [9] 108 % of control | [14] 95 % of control | [16] 97 % of control | [11] 103 % of control | dose: 400.0 mg/kg/injection, schedule: Q01DX009 (ip), vehicle: saline 94 % of control | [17] 94 % of control

CC(Cl)(/N=N\C(C)(Cl)c1ccc(Cl)cc1)c1ccc(Cl)cc1 (centres undefined)
inactive: [7] 96 % of control | [1] 92 % of control | [8] 103 % of control | [9] 92 % of control | [2] 106 % of control | [10] 103 % of control | [11] 96 % of control | [3] 98 % of control | [12] 93 % of control

C[Se]c1ncnc2c1ccn2C1OC(CO)C(O)C1O (centres undefined)
inactive: dose: 12.5 mg/kg/injection, schedule: Q01DX005 (ip), vehicle: saline 104 % of control | dose: 25.0 mg/kg/injection, schedule: Q01DX005 (ip), vehicle: saline 106 % of control | dose: 50.0 mg/kg/injection, schedule: Q01DX005 (ip), vehicle: saline 102 % of control

CCOC(=O)C(=CNc1ccc(OC)cc1[N+](=O)[O-])C(=O)OCC
inactive: dose: 12.5 mg/kg/injection, schedule: Q01DX009 (ip), vehicle: saline with Tween-80 97 % of control | dose: 25.0 mg/kg/injection, schedule: Q01DX009 (ip), vehicle: saline with Tween-80 90 % of control | [4] 94 % of control and 90 % of control | [18] 95 % of control | [5] 105 % of control | [19] 88 % of control | [20] 92 % of control

CCC1(c2ccccc2)C(=O)NC(=O)N(Cc2ccccc2)C1=O (centres undefined)
inactive: [4] 109 % of control | [18] 89 % of control | [5] 98 % of control | [19] 95 % of control | [6] 98 % of control | [20] 103 % of control

CC(=O)OC1CCC2(C)C(=CC=C3C2CCC2(C)C(C(C)=O)CCC32)C1 (centres undefined)
inactive: dose: 100.0 mg/kg/injection, schedule: Q04DX002 (ip), vehicle: Klucel (hydroxypropylcellulose) (HPC) 86 % of control | dose: 200.0 mg/kg/injection, schedule: Q04DX002 (ip), vehicle: Klucel (hydroxypropylcellulose) (HPC) 110 % of control | dose: 400.0 mg/kg/injection, schedule: Q04DX002 (ip), vehicle: Klucel (hydroxypropylcellulose) (HPC) 104 % of control

Cc1ccc(S(=O)(=O)N/N=C(\CSc2ccc(N(C)C)cc2)c2ccccc2)cc1
inactive: [21] 105 % of control | [18] 86 % of control | [19] 97 % of control | [20] 90 % of control

COc1ccc(NC(=O)Nc2cccc([N+](=O)[O-])c2OC)cc1
inactive: dose: 25.0 mg/kg/injection, schedule: Q04DX002 (ip), vehicle: saline with Tween-80 93 % of control | [21] 96 % of control | [18] 89 % of control

CC(C)(C)C(=O)[CH-]C(=O)C(C)(C)C.CC(C)(C)C(=O)[CH-]C(=O)C(C)(C)C.CC(C)(C)C(=O)[CH-]C(=O)C(C)(C)C.CS(C)=O.[Er+3]
inactive: [7] 98 % of control | [8] 103 % of control | [9] 101 % of control | [10] 98 % of control | [11] 96 % of control | [12] 103 % of control

O=C(NCCCCCCCCCNC(=O)Nc1ccc(C2=NCCCN2)cc1)Nc1ccc(C2=NCCCN2)cc1
inactive: dose: 3.75 mg/kg/injection, schedule: Q01DX Z (ip), vehicle: carboxymethylcellulose (CMC) 91 % of control | dose: 7.5 mg/kg/injection, schedule: Q01DX Z (ip), vehicle: carboxymethylcellulose (CMC) 98 % of control | dose: 15.0 mg/kg/injection, schedule: Q01DX Z (ip), vehicle: carboxymethylcellulose (CMC) 122 % of control

CN(C)C1c2ccccc2-c2cccc(C(=O)O)c21 (centres undefined)
inactive: [22] 108 % of control | [23] 103 % of control | [24] 103 % of control

COC(=O)C1CCCCC1NC(C)=O (centres undefined)
inactive: [22] 102 % of control | [15] 114 % of control | [23] 110 % of control | [16] 100 % of control | [24] 103 % of control | [17] 103 % of control
